Literature values as cited in patent US20100028426A1, “TIME-SPECIFIC DELAYED/PULSATILE RELEASE DOSAGE FORMS” (POLICHEM S.A., priority 2007, published 2010).

Legend:
[1] = system: sleep disorders
[2] = in vivo

Compound: CCN(C(C)=O)c1cccc(-c2ccnc3c(C#N)cnn23)c1 [Zaleplon]
- time to sleep onset (TSO) ([1]; in vivo): effective in shortening the time to sleep onset
- total sleep time and number of awakening ([1]; oral immediate release formulation taken at bed time): neither increases total sleep time, nor decreases the number of awakening
- time to peak concentration (t max) [2]: approximately 1 hour
